The values that follow come from US5637591A, “Antimicrobial and anticollagenase activity of phenazine-5, 10-dioxide and derivatives” (Fuji ImmunoPharmaceuticals Corp., priority 1995, dated 1997).

Like-named read-outs stand apart in the source and are kept apart here.

In data set [1] the test system is purified collagenase from P. gingivalis. Briefly: anti-collagenase activity, 3H-collagen hydrolysis. It is filed as biochemical. The settings on record: for % Inhibition of collagenase: 24 h at 25° C. Here is the method: Collagenase activity in the presence of the preferred compound 2-aminophenazine-5,10-dioxide and in the presence of Tetracycline were measured by incubating ^3 H-collagen with purified collagenase from P. gingivalis using increasing drag concentrations. After 24 h at 25° C., unhydrolyzed collagen fibers were removed from the mixture by centrifugation, and the specific activity of ^3 H in the supernatant quantified as a measure of hydrolyzed collagen. Percent inhibition was determined by subtracting the value in the presence of test compound from the control value, then dividing this quantity by the control value [(control-compound)/control×100].

A further data set deals with P. gingivalis. Briefly: bone loss after oral colonization with P. gingivalis in mice, systemic administration. The note with it: infected mice, IP daily; 25 d (2-methylphenazine-5,10-dioxide) or 40 d (Tetracycline). It is filed as in vivo, BALB/c mice. Here is the method:
An animal model for testing the antimicrobial activity of the invention against P. gingivalis was conducted by inducing oral colonization of the microbe in BALB/c mice. Drug (2-methylphenazine-5,10-dioxide or Tetracycline) or control (2.5% cyclodextran) was administered intraperitoneally once each day for 25 days (2-methylphenazine-5,10-dioxide) or 40 days (Tetracycline). On the day following the last dose administration, the rear molars of the mice were swabbed and the swabs incubated in a growth medium to assess the presence of P. gingivalis. Mice were then sacrificed and jaw bones harvested for evaluation of bone loss.

The format of data set [2] is in vivo. The note with it: for Other Signs of Toxicity: in vivo. Here is the method: Toxicity was also evaluated in rodents via intravenous (IV) and oral (PO) routes of administration across a range of dose levels.

Take `Nc1ccc2c(c1)[n+]([O-])c1ccccc1[n+]2[O-]` [2-aminophenazine-5,10-dioxide]: the “% Inhibition of collagenase” value is recorded as 11.6% in data set [1] (1 μg/ml), 47.3% in data set [1] (10 μg/ml), 57.3% in data set [1] (50 μg/ml) and 81.7% in data set [1] (100 μg/ml). Further, the “anti-collagenase IC50” value in data set [1] (estimated from Table 5) is “more than 10 μg/ml”.
On to `Cc1ccc2c(c1)[n+]([O-])c1ccccc1[n+]2[O-]` [2-methylphenazine-5,10-dioxide], for which, in the data set with P. gingivalis, the “effect of treatment on bone loss” value is recorded as “reduced the observed bone loss”. For the same compound, the Deaths in data set [2] (Mice, 5 mg/kg IV, 25% Cremaphor, 1 administration) amounted to 0; in data set [2] (Mice, 5 mg/kg IV, 30% Encapsin CD, 1 administration), 0; in data set [2] (Mice, 5 mg/kg IV, 100% DMSO, 1 administration), 0; in data set [2] (Mice, 30 mg/kg IV, 10% Cremaphor, 1 administration), 0; in data set [2] (Mice, 40 mg/kg IV, 25% Cremaphor, 1 administration), 0; in data set [2] (Mice, 50 mg/kg IV, 30% Encapsin CD, 1 administration) it was 0. Besides, the Deaths in data set [2] (Mice, 800 mg/kg PO, 100% Cremaphor, 1 administration) is 0; in data set [2] (Mice, 1000 mg/kg PO, 100% Cremaphor, 1 administration) it was 1/2; in data set [2] (Rats, 5 mg/kg IV, 20% Cremaphor, 1 administration) it was 0; in data set [2] (Rats, 10 mg/kg IV, 25% Encapsin CD/10% DMSO, 1 administration) it was 0; in data set [2] (Rats, 20 mg/kg IV, 30% Encapsin CD, 1 administration) it was 0; in data set [2] (Rats, 50 mg/kg PO, 2% Brij 35/Water, 1 administration) it was 0. For the same compound, the Deaths is given as 0 in data set [2] (Rats, 50 mg/kg PO, 10% Brij 35/Mineral Oil, 1 administration); 0 in data set [2] (Rats, 50 mg/kg PO, 10% Brij 35/Water, 1 administration); 0 in data set [2] (Rats, 50 mg/kg PO, Water, 1 administration); 0 in data set [2] (Rats, 80 mg/kg PO, 10% Cremaphor, 1 administration); 0 in data set [2] (Rats, 100 mg/kg PO, 2% Brij 35, 1 administration); 0 in data set [2] (Rats, 100 mg/kg PO, 10% Arlacel 83/Corn Oil, 1 administration). The Deaths in data set [2] (Rats, 100 mg/kg PO, 100% PEG400, 1 administration) amounted to 0; in data set [2] (Rats, 100 mg/kg PO, 110% Encapsin CD, 1 administration) it was 0; in data set [2] (Rats, 200 mg/kg PO, 100% Cremaphor, 1 administration), 0. Further, the “Other Signs of Toxicity” value is recorded as “NONE” in data set [2] (mouse, iv, 5 mg/kg); “NONE” in data set [2] (mouse, iv, 30 mg/kg); “NONE” in data set [2] (mouse, iv, 40 mg/kg); “Abnormal Clin Obs” in data set [2] (mouse, iv, 50 mg/kg); “NONE” in data set [2] (mouse, po, 800 mg/kg); “NONE” in data set [2] (mouse, po, 1000 mg/kg). Further, the “Other Signs of Toxicity” value in data set [2] (rat, iv, 10 mg/kg) is given as “NONE”; in data set [2] (rat, iv, 20 mg/kg), “NONE”; in data set [2] (rat, po, 50 mg/kg), “NONE”; in data set [2] (rat, po, 80 mg/kg) it was “NONE”; in data set [2] (rat, po, 100 mg/kg) it was “NONE”; in data set [2] (rat, po, 200 mg/kg), “NONE”.
